The values that follow come from paper PMC3525754 (Biochemistry, 2012).

Assay [1] has as its target T1, DrPRODH (proline dehydrogenase from Deinococcus radiodurans R1) (Deinococcus radiodurans, UniProt Q9RW55). The experiment in a line: X-ray crystal structure, […] Å. The class given is binding. The conditions noted are these: crystal reduced by soaking in 50 mM sodium dithionite.
Assay [2] addresses T1, DrPRODH (proline dehydrogenase from Deinococcus radiodurans R1). Kind of assay: steady-state CoQ1 reduction, absorbance […] nm. The class given is biochemical.
Assay [3] shares this target. The experiment in a line: X-ray crystal structure, […] Å. The class given is binding. The following applies: oxidized enzyme complexed with THFA; two ribityl conformations.

T1 sequence (Q9RW55 whole entry): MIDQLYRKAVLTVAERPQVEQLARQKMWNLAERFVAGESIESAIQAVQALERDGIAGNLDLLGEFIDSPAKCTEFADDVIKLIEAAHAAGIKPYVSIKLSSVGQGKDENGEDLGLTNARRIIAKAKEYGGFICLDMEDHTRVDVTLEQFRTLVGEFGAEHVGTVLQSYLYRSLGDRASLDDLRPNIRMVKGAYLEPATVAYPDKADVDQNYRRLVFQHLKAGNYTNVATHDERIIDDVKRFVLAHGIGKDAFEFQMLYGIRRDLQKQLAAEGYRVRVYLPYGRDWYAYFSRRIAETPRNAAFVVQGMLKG

On to `Cc1cc2c(cc1C)N(C[C@H](O)[C@H](O)[C@H](O)COP(=O)(O)OP(=O)(O)OC[C@H]1O[C@@H](n3cnc4c(N)ncnc43)[C@H](O)[C@@H]1O)c1[nH]c(=O)[nH]c(=O)c1N2` [reduced FAD], for which the “X-ray crystal structure, 1.75 Å” value in assay [1] is “The reduced flavin of DrPRODHr exhibits just one ribityl conformation”.
Compound `O=C(O)[C@@H]1CCCO1` [THFA] displayed a Ki in assay [2] of 38 mM.
As to `Cc1cc2nc3c(=O)[nH]c(=O)nc-3n(C[C@H](O)[C@H](O)[C@H](O)COP(=O)(O)OP(=O)(O)OC[C@H]3O[C@@H](n4cnc5c(N)ncnc54)[C@H](O)[C@@H]3O)c2cc1C` [FAD], the “X-ray crystal structure, 1.36 Å” value in assay [3] was “The oxidized flavin exhibits two conformations”.

One may read the Ki as a dissociation constant, usually derived from enzyme kinetics or from competition with a known ligand. Low values mean tighter binding, high ones weaker binding.
